Assay results reported in article PMC8840081, “Phenylalanine-Based AMPA Receptor Antagonist as the Anticonvulsant Agent with Neuroprotective Activity—In Vitro and In Vivo Studies” (Molecules, 2022).
pKi: −log10 of the molar value.

Columns and labels:
[1] = tested on: IMR-32 neuroblastoma cells; assay: neuroprotection against 6-OHDA-induced LDH release; type: cell-based, human; details: IMR-32, compound 50 µM, 1 h pretreatment, 200 µM 6-OHDA, 24 h
Experimental: (§1) All cell culture protocols and assay conditions were applied as we reported previously. SH-SY5Y (ATCC® CRL-2266™) cell line was purchased from ATCC (Manassas, VA, USA). IMR-32 (ATCC® CCL-127™) cell line was kindly provided by the Department of Oncogenomics, Academisch Medisch Centrum, Amsterdam, Holland. Before each test SH-SY5Y or IMR-32 cells were seeded in 96-well plates with transparent bottom at a concentration of 2.5 × 10^4 cells/well in 100 μL of respective cell culture medium and cultured for 24 h to reach 70% confluence. • Cell Viability
(§2) CytoTox-ONE™ Homogeneous Membrane Integrity Assay, which based on the LDH release, was purchased from Promega (Madison, WI, USA). SH-SY5Y or IMR-32 cells were seeded in 96-well white plates with transparent bottom. For neuroprotective studies, the cells were preincubated first for 1 h with compound 1, 8 or reference antioxidants AA, TX (all at the concentration of 50 μM) and next the neurotoxin 6-OHDA (Sigma-Aldrich, Inc., St. Louis, MO, USA) was added at final concentration of 50 μM (SH-SY5Y assay) or 200 µM (IMR-32 assay). After 24 h of incubation, the CytoTox-ONE™ was added to each well and the cells were incubated next for 10 min at room temperature. The fluorescence was measured using a microplate reader EnSpire (PerkinElmer, Waltham, MA, USA) with an excitation wavelength of 560 nm and an emission wavelength of 590 nm. All measurements were performed in triplicate and results are shown as mean ± SD. The similar studies were also performed with SH-SY5Y cells injured by 100 μM of 6-OHDA (Figure S1, Supporting Materials). • ROS Assay

[2] = tested on: SH-SY5Y neuroblastoma cells; assay: neuroprotection against 6-OHDA-induced LDH release; type: cell-based, human; details: compound 50 µM
Experimental: as §1, §2

[3] = ferric reducing antioxidant power (FRAP) assay; details: % of ascorbic acid activity; compounds and AA at 1 mM
Experimental: The total antioxidant potential of aryl-substituted phenylalanine derivatives was determined using FRAP assay. The FRAP reagent was prepared first by mixing acetate buffer (300 mM, pH 3.6), a solution of 10 mM TPTZ (2,4,6-tripyridyl-s-triazine, Sigma-Aldrich, Inc., St. Louis, MO, USA) in 40 mM HCl and 20 mM of iron (III) chloride hexahydrate (FeCl3 × 6H2O, Chempur, Piekary Śląskie, Poland) at 10:1:1 (v/v/v). The FRAP reagent (190 μL) and 1 mM of tested compound (10 μL) was added next to each well, mixed and incubated for 30 min. The absorbance was measured using a microplate reader EnSpire (PerkinElmer, Waltham, MA USA) at 593 nm. AA (1 mM, AMARA, Kraków, Poland) was used as the reference antioxidant. The results were expressed as % of ascorbic acid activity (%AAA). Analyses were performed in triplicate. • ORAC-FL

[4] = target: native AMPA receptors; details: native AMPA receptors, rat brain membranes, mean of three experiments, cited from earlier work
[5] = tested on: SH-SY5Y cells; assay: ROS assay (DCFH-DA), H2O2-induced ROS accumulation; type: cell-based, human; details: compound 50 µM, 500 µM H2O2, 3 h
Experimental: as §1
During this assay SH-SY5Y cells were preincubated first for 1 h with 250 μM solution of DCFH-DA (Sigma-Aldrich, Inc., St. Louis, MO, USA) in HBSS buffer. After DCFH-DA was removed, cells were washed with HBSS and incubated next for 1 h with 50 μM of compound 1 or 8. Next, the H2O2 was added at final concentration 500 μM. After 3 h of incubation, the fluorescence was measured using a microplate reader EnSpire (PerkinElmer, Waltham, MA, USA) with an excitation wavelength of 486 nm and emission wavelength of 530 nm. All measurements were performed in triplicate and results are shown as mean ± SD.

[6] = target: T1, Human MAO-B (Homo sapiens, UniProt P27338); assay: MAO-B inhibition, Amplex Red Monoamine Oxidase kit; type: biochemical; details: 1 µM compound; % of full inhibition (pargyline 10 µM)
T1 construct: purchased Merck KGaA (Darmstadt, Germany)
T1 sequence (P27338 1-520): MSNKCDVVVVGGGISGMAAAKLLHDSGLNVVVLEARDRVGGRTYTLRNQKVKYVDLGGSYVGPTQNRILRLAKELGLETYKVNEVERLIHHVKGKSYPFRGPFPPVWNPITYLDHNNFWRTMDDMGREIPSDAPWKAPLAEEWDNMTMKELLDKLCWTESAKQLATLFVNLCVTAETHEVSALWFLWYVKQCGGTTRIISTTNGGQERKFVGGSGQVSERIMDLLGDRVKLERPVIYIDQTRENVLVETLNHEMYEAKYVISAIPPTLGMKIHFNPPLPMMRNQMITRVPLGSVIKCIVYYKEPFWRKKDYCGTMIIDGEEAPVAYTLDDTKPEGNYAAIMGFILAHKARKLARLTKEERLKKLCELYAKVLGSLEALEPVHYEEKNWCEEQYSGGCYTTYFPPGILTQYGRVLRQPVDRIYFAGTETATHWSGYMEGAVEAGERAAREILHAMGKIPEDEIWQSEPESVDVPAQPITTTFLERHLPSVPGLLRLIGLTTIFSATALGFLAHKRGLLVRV
Experimental: Human MAO-B was purchased from Merck KGaA (Darmstadt, Germany). The activity of compound 1 and 8 was measured in the presence of p-tyramine (200 μM). […] Firstly, inhibitors’ activity was measured in a concentration of 1 μM. […] For compounds that inhibited the enzyme by more than 50% further studies were conducted to obtain IC50 from concentration–response curves. All calculations were made in Microsoft Excel and GraphPadPrism software. All experiments were performed in duplicate and data are expressed as mean ± SEM.

[7] = oxygen radical absorbance capacity fluorescent (ORAC-FL) assay; details: Trolox equivalent, calculated at 5 µM of compounds and Trolox
Experimental: The ORAC-FL was performed according to procedure described in the literature. The reagents used in this assay, TX, fluorescein and 2,2′-azobis(2-amidinopropane) dihydrochloride (AAPH), were purchased from Sigma-Aldrich, Inc., St. Louis, MO, USA. The prepared ORAC-FL reagent consisted of 0.3 μM of fluorescein and 100 µM of AAPH dissolved in PBS buffer. The compounds and the reference antioxidant TX were tested at the concentration 2.5 µM and the results were compared to the blank in which no antioxidant was present. The assays were performed in black 96-well plates. The fluorescence readings were taken by a microplate reader EnSpire (PerkinElmer, Waltham, MA, USA) every minute for a duration of 240 min. The excitation wavelength was 485 nm and the emission wavelength was 520 nm. The area under the fluorescence decay curve (AUC) was calculated next by GraphPad Prism™ software (version 5.01, San Diego, CA, USA). All measurements were performed in triplicate. The TX equivalent (TE) was calculated next using the following Equation (1):TE = [(AUCsample − AUCblank)/(AUCTX − AUCblank)] × [CTX/Csample](1)

[8] = tested on: IMR-32 neuroblastoma cells; assay: cell viability, MTS assay; type: cell-based, human; details: IMR-32, 24 h incubation, 1–100 µM
Experimental: as §1
(§3) The CellTiter 96® AQueous Non-Radioactive Cell Proliferation Assay was purchased from Promega (Madison, WI, USA). After 24 h of cells incubation with compound 1 or 8 in the concentrations range 1–100 µM the MTS-based labeling mixture was added to each well and cells were incubated under the same conditions for 2–3 h. The absorbance was measured using a microplate reader EnSpire (PerkinElmer, Waltham, MA, USA) at 490 nm. All measurements were performed in triplicate and results are shown as mean ± SD. • Lactate Dehydrogenase Test

[9] = tested on: SH-SY5Y neuroblastoma cells; assay: cell viability, MTS assay; type: cell-based, human; details: 24 h incubation, 1–100 µM
Experimental: as §1, §3

With Nc1c(Cl)cc(CC(N)C(=O)O)cc1-c1ccc(O)cc1 (centres unmarked) [Compound 8] the “6-OHDA-induced release of LDH (neuroprotection)” value (“6-OHDA-induced release of LDH” below) [1] was “no statistically significant neuroprotective effect”, the “6-OHDA-induced release of LDH” value ([2]; 100 µM 6-OHDA) was “neuroprotective effect was not observed” and the “6-OHDA-induced release of LDH” value ([2]; 1 h pretreatment, 50 µM 6-OHDA, 24 h) was “no statistically significant neuroprotective effect”. The “FRAP (%AAA)” value [3] was 48.19 %AAA, the “[3H]AMPA Ki” value [4] was “lack of detectable AMPA receptor affinity” and the pKi ([4]; read-out: [3H]AMPA Ki) was less than 4.00. The “intracellular ROS level” value [5] was “statistically significant decrease”, the “MAO-B inhibition, screening” value [6] was “No inhibitory activity” and the “ORAC (TE)” value [7] was 7.56 TE. For the same molecule, the cell viability [8] was “no influence on cell viability” and the cell viability [9] was “no influence on cell viability”.
